Source: patent US20240316022A1 (TYRA BIOSCIENCES, INC., priority 2021, published 2024)

Legend:
Assay in all cases: Kinase binding assay (kinase-tagged T7 phage, qPCR), Kd
FGFR1 = target: T1, FGFR1 (Homo sapiens, UniProt P11362); conditions: read-out: FGFR1 (Kd nM)
T1 construct: made in house; host or cells: E. coli derived from BL21, infected with T7 phage
Protocol: (§1) Kinase-tagged T7 phage strains were prepared in an E. coli host derived from the BL21 strain. E. coli were grown to log-phase and infected with T7 phage and incubated with shaking at 32° C. until lysis. The lysates were centrifuged and filtered to remove cell debris. […] The liganded beads were blocked with excess biotin and washed with blocking buffer SeaBlock (Pierce), 1% BSA, 0.05% Tween 20, 1 mM DTT to remove unbound ligand and to reduce non-specific binding.
(§2) Kds were determined using an 11-point 3-fold compound dilution series with three DMSO control points. […] The compounds were then diluted directly into the assays such that the final concentration of DMSO was 0.9%. All reactions performed in polypropylene 384-well plate. Each was a final volume of 0.02 ml. […] The kinase concentration in the eluates was measured by qPCR.
(§3) Binding constants were calculated with a standard dose-response curve using the Hill equation: […]
(§4) The Hill Slope was set to −1. Curves were fitted using a non-linear least square fit with the Levenberg-Marquardt algorithm.

FGFR2 = target: T2, FGFR2 (Homo sapiens, UniProt P21802); conditions: read-out: FGFR2 (Kd nM)
T2 construct: made in house; host or cells: E. coli derived from BL21, infected with T7 phage
T2 sequence (P21802 22-821): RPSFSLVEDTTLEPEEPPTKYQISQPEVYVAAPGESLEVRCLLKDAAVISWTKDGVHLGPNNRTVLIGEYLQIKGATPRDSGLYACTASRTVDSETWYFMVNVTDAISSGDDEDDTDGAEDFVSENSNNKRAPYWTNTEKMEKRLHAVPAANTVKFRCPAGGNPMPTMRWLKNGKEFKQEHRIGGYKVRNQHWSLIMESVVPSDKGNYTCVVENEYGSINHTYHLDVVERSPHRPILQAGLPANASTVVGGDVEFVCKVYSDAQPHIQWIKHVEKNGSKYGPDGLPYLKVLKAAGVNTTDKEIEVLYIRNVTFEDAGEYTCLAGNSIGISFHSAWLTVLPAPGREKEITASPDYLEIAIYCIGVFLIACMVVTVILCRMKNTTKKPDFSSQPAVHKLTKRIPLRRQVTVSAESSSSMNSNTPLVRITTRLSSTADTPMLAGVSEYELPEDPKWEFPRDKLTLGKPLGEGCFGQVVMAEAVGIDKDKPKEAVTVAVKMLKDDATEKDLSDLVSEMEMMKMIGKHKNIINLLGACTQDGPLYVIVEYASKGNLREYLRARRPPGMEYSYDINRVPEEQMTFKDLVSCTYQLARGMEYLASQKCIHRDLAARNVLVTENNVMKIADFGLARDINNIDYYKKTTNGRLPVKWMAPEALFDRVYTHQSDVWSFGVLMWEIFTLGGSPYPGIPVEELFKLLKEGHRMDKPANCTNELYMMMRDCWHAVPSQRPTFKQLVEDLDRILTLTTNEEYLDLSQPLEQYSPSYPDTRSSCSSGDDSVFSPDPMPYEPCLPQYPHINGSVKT
Protocol: as §1, §2, §3, §4

FGFR3 = target: T3, FGFR3 (Homo sapiens, UniProt P22607); conditions: read-out: FGFR3 (Kd nM)
T3 construct: made in house; host or cells: E. coli derived from BL21, infected with T7 phage
T3 sequence (P22607 23-806): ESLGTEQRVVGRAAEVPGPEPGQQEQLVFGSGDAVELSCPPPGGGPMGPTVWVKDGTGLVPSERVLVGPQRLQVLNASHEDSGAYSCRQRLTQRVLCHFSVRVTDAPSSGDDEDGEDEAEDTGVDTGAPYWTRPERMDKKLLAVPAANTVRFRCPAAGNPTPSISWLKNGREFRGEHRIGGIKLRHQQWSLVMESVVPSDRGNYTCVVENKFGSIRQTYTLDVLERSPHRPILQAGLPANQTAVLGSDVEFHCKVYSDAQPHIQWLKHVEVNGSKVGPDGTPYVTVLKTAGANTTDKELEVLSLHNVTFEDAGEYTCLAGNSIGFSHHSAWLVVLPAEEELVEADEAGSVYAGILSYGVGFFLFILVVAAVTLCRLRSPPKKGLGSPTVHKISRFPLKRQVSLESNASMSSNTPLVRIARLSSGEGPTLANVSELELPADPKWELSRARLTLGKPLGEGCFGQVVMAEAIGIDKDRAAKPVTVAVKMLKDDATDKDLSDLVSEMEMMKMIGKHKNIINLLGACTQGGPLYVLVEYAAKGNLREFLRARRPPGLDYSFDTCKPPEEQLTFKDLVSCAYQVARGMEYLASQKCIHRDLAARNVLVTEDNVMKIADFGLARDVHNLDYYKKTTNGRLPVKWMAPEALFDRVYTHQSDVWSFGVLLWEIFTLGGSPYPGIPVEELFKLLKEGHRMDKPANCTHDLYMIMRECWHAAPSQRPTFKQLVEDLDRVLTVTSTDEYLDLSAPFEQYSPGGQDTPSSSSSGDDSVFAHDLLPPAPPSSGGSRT
Protocol: (§5) Kinase-tagged T7 phage strains were prepared in an E. coli host derived from the BL21 strain. E. coli were grown to log-phase and infected with T7 phage and incubated with shaking at 32° C. until lysis. The lysates were centrifuged and filtered to remove cell debris. Streptavidin-coated magnetic beads were treated with biotinylated small molecule ligands for 30 minutes at room temperature to generate affinity resins for kinase assays. The liganded beads were blocked with excess biotin and washed with blocking buffer SeaBlock (Pierce), 1% BSA, 0.05% Tween 20, 1 mM DTT to remove unbound ligand and to reduce non-specific binding. Binding reactions were assembled by combining kinases, liganded affinity beads, and test compounds in 1× binding buffer (20% SeaBlock, 0.17×PBS, 0.05% Tween 20, 6 mM DTT).
(§6) Test compounds were prepared as 111X stocks in 100% DMSO. Kds were determined using an 11-point 3-fold compound dilution series with three DMSO control points. All compounds for Kd measurements are distributed by acoustic transfer (non-contact dispensing) in 100% DMSO. The compounds were then diluted directly into the assays such that the final concentration of DMSO was 0.9%. All reactions performed in polypropylene 384-well plate. Each was a final volume of 0.02 ml. The assay plates were incubated at room temperature with shaking for 1 hour and the affinity beads were washed with wash buffer (1×PBS, 0.05% Tween 20). The beads were then re-suspended in elution buffer (1×PBS, 0.05% Tween 20, 0.5 μM non-biotinylated affinity ligand) and incubated at room temperature with shaking for 30 minutes. The kinase concentration in the eluates was measured by qPCR.
as §3, §4

FGFR4 = target: T4, FGFR4 (Homo sapiens, UniProt P22455); conditions: read-out: FGFR4 (Kd nM)
T4 construct: made in house; host or cells: E. coli derived from BL21, infected with T7 phage
T4 sequence (P22455 22-802): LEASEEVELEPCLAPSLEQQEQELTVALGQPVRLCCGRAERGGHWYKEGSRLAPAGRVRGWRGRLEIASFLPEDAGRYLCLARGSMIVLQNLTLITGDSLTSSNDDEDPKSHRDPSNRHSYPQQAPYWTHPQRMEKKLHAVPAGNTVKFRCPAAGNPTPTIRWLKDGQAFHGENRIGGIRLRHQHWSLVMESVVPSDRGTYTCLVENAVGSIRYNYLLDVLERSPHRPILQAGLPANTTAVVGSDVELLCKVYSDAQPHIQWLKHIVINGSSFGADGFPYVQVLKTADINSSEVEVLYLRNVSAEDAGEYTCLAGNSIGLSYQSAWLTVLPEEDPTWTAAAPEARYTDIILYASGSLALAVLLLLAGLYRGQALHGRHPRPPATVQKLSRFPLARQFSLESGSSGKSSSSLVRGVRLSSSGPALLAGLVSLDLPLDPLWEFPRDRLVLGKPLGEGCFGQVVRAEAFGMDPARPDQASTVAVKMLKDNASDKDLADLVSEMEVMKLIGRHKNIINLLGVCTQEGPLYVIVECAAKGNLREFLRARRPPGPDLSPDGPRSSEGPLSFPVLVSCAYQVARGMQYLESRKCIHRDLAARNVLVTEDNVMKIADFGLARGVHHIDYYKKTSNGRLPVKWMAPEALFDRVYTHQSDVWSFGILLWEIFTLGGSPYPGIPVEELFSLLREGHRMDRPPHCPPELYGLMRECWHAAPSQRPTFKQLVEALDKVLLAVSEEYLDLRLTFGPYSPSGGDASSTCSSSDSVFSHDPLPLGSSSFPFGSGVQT
Protocol: as §5, §6, §3, §4

T1 sequence (P11362 22-822): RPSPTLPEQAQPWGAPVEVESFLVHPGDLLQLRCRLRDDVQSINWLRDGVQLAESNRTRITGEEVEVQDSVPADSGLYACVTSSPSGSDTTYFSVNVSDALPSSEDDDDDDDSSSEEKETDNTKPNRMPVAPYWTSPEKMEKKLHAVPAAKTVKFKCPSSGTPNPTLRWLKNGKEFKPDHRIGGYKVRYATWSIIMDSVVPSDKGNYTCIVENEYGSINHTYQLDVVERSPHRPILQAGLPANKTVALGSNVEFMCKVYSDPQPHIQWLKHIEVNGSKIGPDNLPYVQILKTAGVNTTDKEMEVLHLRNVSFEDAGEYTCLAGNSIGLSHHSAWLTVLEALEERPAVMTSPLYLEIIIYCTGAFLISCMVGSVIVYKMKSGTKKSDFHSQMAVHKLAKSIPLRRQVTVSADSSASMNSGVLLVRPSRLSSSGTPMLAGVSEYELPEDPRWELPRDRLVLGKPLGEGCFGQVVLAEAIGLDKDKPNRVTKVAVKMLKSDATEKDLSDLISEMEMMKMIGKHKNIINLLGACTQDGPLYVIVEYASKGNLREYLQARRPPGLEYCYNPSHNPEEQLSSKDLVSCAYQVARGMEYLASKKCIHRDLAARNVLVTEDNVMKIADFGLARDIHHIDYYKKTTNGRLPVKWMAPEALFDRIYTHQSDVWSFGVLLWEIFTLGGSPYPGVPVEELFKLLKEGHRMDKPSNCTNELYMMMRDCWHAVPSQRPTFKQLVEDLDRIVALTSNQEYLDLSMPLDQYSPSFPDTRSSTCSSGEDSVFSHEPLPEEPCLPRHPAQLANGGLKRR

Compound | Kd (FGFR1) | Kd (FGFR2) | Kd (FGFR3) | Kd (FGFR4)
COc1cc(NCc2cccnc2)cc(-c2n[nH]c3ccc(O[C@H](C)c4c(Cl)cncc4Cl)cc23)c1 [Example 47, 3-[5-[(1R)-1-(3,5-dichloro-4-pyridyl)ethoxy]-1H-indazol-3-yl]-5-methoxy-N-(3-pyridyl-methyl)aniline] | 100 to 250 nM | 100 to 250 nM | 0.1 to 100 nM | 250 to 1000 nM
C[C@@H](Oc1ccc2[nH]nc(-c3cnc4c(c3)N(Cc3ccccn3)CCO4)c2c1)c1c(Cl)cncc1Cl [Example 48, 7-[5-[(1R)-1-(3,5-dichloro-4-pyridyl)ethoxy]-1H-indazol-3-yl]-1-(2-pyridyl-methyl)-2,3-dihydro-pyrido[2,3-b][1,4]oxazine] | > 1000 nM | > 1000 nM | 0.1 to 100 nM | 250 to 1000 nM
C[C@@H](Oc1ccc2[nH]nc(-c3cnc4c(c3)N(CCN3CCOCC3)CCO4)c2c1)c1c(Cl)cncc1Cl [Example 50, 7-[5-[(1R)-1-(3,5-dichloro-4-pyridyl)ethoxy]-1H-indazol-3-yl]-1-(2-morpholino-ethyl)-2,3-dihydropyrido[2,3-b][1,4]oxazine] | > 1000 nM | > 1000 nM | > 1000 nM | 0.1 to 100 nM
C[C@@H](Oc1ccc2[nH]nc(-c3cnc4c(c3)N(CCN(C)C)CCO4)c2c1)c1c(Cl)cncc1Cl [Example 51, 2-[7-[5-[(1R)-1-(3,5-dichloro-4-pyridyl)ethoxy]-1H-indazol-3-yl]-2,3-dihydro-pyrido[2,3-b][1,4]oxazin-1-yl]-N,N-dimethyl-ethanamine] | > 1000 nM | > 1000 nM | 250 to 1000 nM | 100 to 250 nM
CCOc1cc(OC)cc(-c2n[nH]c3ccc(O[C@H](C)c4c(C)cnnc4C)cc23)c1 [Example 52, 5-[(1R)-1-(3,5-dimethylpyridazin-4-yl)ethoxy]-3-(3-ethoxy-5-methoxy-phenyl)-1H-indazole] | > 1000 nM | 250 to 1000 nM | 100 to 250 nM | 0.1 to 100 nM
COc1cc(OC)cc(-c2n[nH]c3ccc(O[C@H](C)c4c(C)cnnc4C)cc23)c1 [Example 54, 3-(3,5-dimethoxyphenyl)-5-[(1R)-1-(3,5-dimethylpyridazin-4-yl)ethoxy]-1H-indazole] | 250 to 1000 nM | 250 to 1000 nM | 0.1 to 100 nM | 0.1 to 100 nM
COc1cc(OC)cc(-c2n[nH]c3ccc(O[C@@H](C)c4c(C)cnnc4C)cc23)c1 [Example 58, 3-(3,5-dimethoxyphenyl)-5-[(1S)-1-(3,5-dimethylpyridazin-4-yl)ethoxy]-1H-indazole] | 0.1 to 100 nM | 0.1 to 100 nM | 0.1 to 100 nM | 0.1 to 100 nM
CCOc1cc(OC)cc(-c2n[nH]c3ccc(O[C@@H](C)c4c(C)cnnc4C)cc23)c1 [Example 59, 5-[(1S)-1-(3,5-dimethylpyridazin-4-yl)ethoxy]-3-(3-ethoxy-5-methoxy-phenyl)-1H-indazole] | > 1000 nM | > 1000 nM | > 1000 nM | > 1000 nM
COc1cc(OC(C)C)cc(-c2n[nH]c3ccc(O[C@H](C)c4c(C)cnnc4C)cc23)c1 [Example 60, 5-[(1R)-1-(3,5-dimethylpyridazin-4-yl)ethoxy]-3-(3-isopropoxy-5-methoxy-phenyl)-1H-indazole] | > 1000 nM | > 1000 nM | > 1000 nM | > 1000 nM
COc1cc(OC(F)(F)F)cc(-c2n[nH]c3ccc(O[C@H](C)c4c(C)cnnc4C)cc23)c1 [Example 63, 5-[(1R)-1-(3,5-dimethylpyridazin-4-yl)ethoxy]-3-[3-methoxy-5-(trifluoromethoxy)phenyl]-1H-indazole] | > 1000 nM | > 1000 nM | 250 to 1000 nM | 0.1 to 100 nM
COc1cc(OCC2CC2)cc(-c2n[nH]c3ccc(O[C@H](C)c4c(C)cnnc4C)cc23)c1 [Example 68, 3-[3-(cyclopropyl-methoxy)-5-methoxy-phenyl]-5-[(1R)-1-(3,5-dimethylpyridazin-4-yl)ethoxy]-1H-indazole] | > 1000 nM | > 1000 nM | > 1000 nM | 0.1 to 100 nM
Cc1cc(-c2n[nH]c3ccc(O[C@H](C)c4c(C)cnnc4C)cc23)cc(C#N)n1 [Example 69, 4-[5-[(1R)-1-(3,5-Dimethylpyridazin-4-yl)ethoxy]-1H-indazol-3-yl]-6-methyl-pyridine-2-carbonitrile] | 100 to 250 nM | 0.1 to 100 nM | 0.1 to 100 nM | 0.1 to 100 nM

Continued, values first:

Kd (FGFR1) | Kd (FGFR2) | Kd (FGFR3) | Kd (FGFR4) | Compound
> 1000 nM | > 1000 nM | > 1000 nM | 250 to 1000 nM | COc1cc(C#N)cc(-c2n[nH]c3ccc(O[C@@H](C)c4c(C)cnnc4C)cc23)c1 [Example 55, 3-[5-[(1S)-1-(3,5-dimethylpyridazin-4-yl)ethoxy]-1H-indazol-3-yl]-5-methoxy-benzonitrile]
250 to 1000 nM | 250 to 1000 nM | 100 to 250 nM | 0.1 to 100 nM | CCOc1cc(C#N)cc(-c2n[nH]c3ccc(O[C@H](C)c4c(C)cnnc4C)cc23)c1 [Example 56, 3-[5-[(1R)-1-(3,5-dimethylpyridazin-4-yl)ethoxy]-1H-indazol-3-yl]-5-ethoxy-benzonitrile]
250 to 1000 nM | > 1000 nM | 250 to 1000 nM | 0.1 to 100 nM | Cc1cnnc(C)c1[C@@H](C)Oc1ccc2[nH]nc(-c3cc(C#N)cc(OC(C)C)c3)c2c1 [Example 57, 3-[5-[(1R)-1-(3,5-dimethylpyridazin-4-yl)ethoxy]-1H-indazol-3-yl]-5-isopropoxy-benzonitrile]
> 1000 nM | > 1000 nM | > 1000 nM | 250 to 1000 nM | Cc1cnnc(C)c1[C@@H](C)Oc1ccc2[nH]nc(-c3cc(C#N)cc(OC(F)(F)F)c3)c2c1 [Example 61, 3-[5-[(1R)-1-(3,5-dimethylpyridazin-4-yl)ethoxy]-1H-indazol-3-yl]-5-(trifluoromethoxy)-benzonitrile]
> 1000 nM | > 1000 nM | > 1000 nM | 100 to 250 nM | Cc1cnnc(C)c1[C@@H](C)Oc1ccc2[nH]nc(-c3cc(C#N)cc(N4CCN(C)CC4)c3)c2c1 [Example 62, 3-[5-[(1R)-1-(3,5-dimethylpyridazin-4-yl)ethoxy]-1H-indazol-3-yl]-5-(4-methylpiperazin-1-yl)benzonitrile]
> 1000 nM | > 1000 nM | > 1000 nM | 100 to 250 nM | Cc1cnnc(C)c1[C@@H](C)Oc1ccc2[nH]nc(-c3cc(C#N)cc(N4CCOCC4)c3)c2c1 [Example 64, 3-[5-[(1R)-1-(3,5-Dimethylpyridazin-4-yl)ethoxy]-1H-indazol-3-yl]-5-morpholino-benzonitrile]
> 1000 nM | > 1000 nM | > 1000 nM | > 1000 nM | Cc1cnnc(C)c1[C@H](C)Oc1ccc2[nH]nc(-c3cc(C#N)cc(N4CCOCC4)c3)c2c1 [Example 65, 3-[5-[(1S)-1-(3,5-Dimethylpyridazin-4-yl)ethoxy]-1H-indazol-3-yl]-5-morpholino-benzonitrile]
> 1000 nM | > 1000 nM | > 1000 nM | 250 to 1000 nM | Cc1cnnc(C)c1[C@H](C)Oc1ccc2[nH]nc(-c3cc(C#N)cc(N4CCN(C)CC4)c3)c2c1 [Example 66, 3-[5-[(1S)-1-(3,5-dimethylpyridazin-4-yl)ethoxy]-1H-indazol-3-yl]-5-(4-methylpiperazin-1-yl)benzonitrile]
100 to 250 nM | 250 to 1000 nM | 100 to 250 nM | 0.1 to 100 nM | Cc1cnnc(C)c1[C@@H](C)Oc1ccc2[nH]nc(-c3cc(C#N)cc(OC4CCOC4)c3)c2c1 (stereo partly drawn) [Example 67, 3-[5-[(1R)-1-(3,5-dimethylpyridazin-4-yl)ethoxy]-1H-indazol-3-yl]-5-tetrahydrofuran-3-yloxy-benzonitrile]
> 1000 nM | > 1000 nM | > 1000 nM | > 1000 nM | Cc1cc(-c2n[nH]c3ccc(O[C@@H](C)c4c(C)cnnc4C)cc23)cc(C#N)n1 [Example 70, 4-[5-[(1S)-1-(3,5-Dimethylpyridazin-4-yl)ethoxy]-1H-indazol-3-yl]-6-methyl-pyridine-2-carbonitrile]
